According to patent US20140080810A1 (Exelixis, Inc., priority 2010, published 2014):
Where two headings read alike, the source gives them in different places.

Tests used:
PI3Kβ = PI3Kβ (Homo sapiens, UniProt P42338); assay: PI3K Biochemical Assay; details: PIP2 used as substrate
Method: PI3Kα activity is measured as the percent of ATP consumed following the kinase reaction using luciferase-luciferin-coupled chemiluminescence. Reactions were conducted in 384-well white, medium binding microtiter plates (Greiner). Kinase reactions were initiated by combining test compounds, ATP, substrate (PIP2), and kinase in a 20 μL volume in a buffer solution. The standard PI3Kalpha assay buffer is composed 50 mM Tris, pH 7.5, 1 mM EGTA, 10 mM MgCl2, 1 mM DTT and 0.03% CHAPS. The standard assay concentrations for enzyme, ATP, and substrate are 1.5 nM, 1 μM, and 10 μM, respectively. The reaction mixture was incubated at ambient temperature for approximately 2 h. Following the kinase reaction, a 10 μL aliquot of luciferase-luciferin mix (Promega Kinase-Glo) was added and the chemiluminescence signal measured using a Victor2 plate reader (Perkin Elmer). […] Substituting PI3Kα with PI3Kβ, PI3Kγ, or PI3Kδ, the inhibitory activity of the compounds for the other isoforms of I3K were measured.

[1] = test system: pAKT (T308) in PC-3 cells (PTEN-null); assay: pAKT (T308) ELISA Assay; assay type: cell-based; details: Homo sapiens
Method: MCF-7 cells (ATCC) cells were seeded at 24000 cells per well in 96-well plates (Corning, 3904) in DMEM (Cellgro) containing 10% FBS (Cellgro), 1% NEAA (Cellgro) and 1% penicillin-streptomycin (Cellgro). Cells were incubated at 37° C., 5% CO2 for 48 h, and the growth medium was replaced with serum-free DMEM or in medium containing 0.4% BSA. Serial dilutions of the test Compound in 0.3% DMSO (vehicle) were added to the cells and incubated for 3 h. At the end of the incubation period, cells were stimulated for 10 minutes by the addition of L-IGF (Sigma, I-1271) at a final concentration of 100 ng/ml. Afterwards, media was discarded from cell plates and 110 μl/well of cold lysis buffer (see table below) were added. Cell plates were incubated on ice and then put on shaker in 4° C. cold room for 1 h. Two capture plates (Thermo Scientific, Reacti-bind plate, 15042) were prepared for each cell plate by pre-coating with capture Akt antibody from the two sandwich ELISA antibody pairs used (Cell Signaling Technology 7142 and 7144). The Akt capture antibodies were diluted 1:100 in PBS and 100 μl of diluted capture antibody was added per well. Capture plates were incubated at 4 C overnight. […] After 1 h of cell lysis, 85 μl of cell lysate/well was transferred to the capture plate for detection of pAkt(T308). 15 μl of cell lysate was transferred from same well to the second capture plate for detection of total Akt1. After incubation overnight at 4° C., plates were washed 3 times with 200 μL TBST. Primary antibodies, diluted 1:100 in blocking buffer, were added to the corresponding capture plates for pAkt(T308) (Cell Signaling Technology, 7144) and total Akt1 (Cell Signaling Technology, 7142) detection and incubated at room temperature for 1 h. Plates were washed 3 times with 200 μL of TBST. Goat anti-mouse secondary antibody (Cell Signaling Technology, 7076) conjugated to HRP was diluted 1:1000 in blocking buffer and 100 μl were added to each well and incubated for 30 minutes at room temperature. Plates were then washed 3 times with 200 μL of TBST. 100 μL of SuperSignal ELISA Femto stable peroxidase solution (Thermo Scientific, 37075) was added to each well. After 1 minute incubation, chemiluminescence was read on a Wallac Victor2 1420 multilabel counter. IC50 values were determined based on the ratio of pAkt(T308) to total Akt1 signal for Compound treated wells, normalized to the DMSO-treated control wells.
In another embodiment, the pAKT ELISA Assay was performed by seeding cells onto 96-well plates (Corning, 3904) in their respective growth media at the densities listed in Table 5. Cells were incubated at 37° C., 5% CO2 for 48 h (except MDA-MB-453 cells which were cultured in the absence of CO2). Compounds were serially diluted in DMSO and subsequently diluted in serum-free DMEM. Test compounds were added to cells in serum-free DMEM at a final concentration of 0.3% DMSO and incubated for 3 h. Cells were lysed with 130 μL of ice-cold RIPA lysis buffer (50 mM Tris-HCl, pH 7.5; 0.5% sodium deoxycholic acid; 1% Triton X-100; 0.1% SDS; 150 mM NaCl) with protease and phosphatase inhibitors (1 mM EDTA, 1 mM NaF, 20 mM β-glycerophosphate, 1 mM Na-orthovanadate, Complete-Mini EDTA-free, Roche, 11836170001, and Phosphatase Inhibitor Cocktail I, Sigma, P2850), directly in 96-well plates. Cells were lysed on ice for 60-120 min at 4° C. The supernatants were added directly to capture ELISA plates previously pre-coated with rabbit anti-AKT capture antibody. ELISA assays for pAKT(T308) and total AKT were performed with the pAKT(T308) ELISA kit (Cell Signaling Technology, 7144) and AKT1 ELISA kit (Cell Signaling Technology, 7142). For the pAKT(T308) ELISA, 85 μL of cell lysate was added to each well. For the total AKT1 ELISA, 15 μL of cell lysate and 85 μL of Starting Block buffer (Pierce, 37543) were added to each well.

[2] = IGF1 stimulation, read-out: pAKT (T308) IC50 PC# PTEN-null IGF1
[3] = LPA stimulation, read-out: pAKT (T308) IC50 PC# PTEN-null LPA

Chain of PI3Kβ (P42338 whole entry): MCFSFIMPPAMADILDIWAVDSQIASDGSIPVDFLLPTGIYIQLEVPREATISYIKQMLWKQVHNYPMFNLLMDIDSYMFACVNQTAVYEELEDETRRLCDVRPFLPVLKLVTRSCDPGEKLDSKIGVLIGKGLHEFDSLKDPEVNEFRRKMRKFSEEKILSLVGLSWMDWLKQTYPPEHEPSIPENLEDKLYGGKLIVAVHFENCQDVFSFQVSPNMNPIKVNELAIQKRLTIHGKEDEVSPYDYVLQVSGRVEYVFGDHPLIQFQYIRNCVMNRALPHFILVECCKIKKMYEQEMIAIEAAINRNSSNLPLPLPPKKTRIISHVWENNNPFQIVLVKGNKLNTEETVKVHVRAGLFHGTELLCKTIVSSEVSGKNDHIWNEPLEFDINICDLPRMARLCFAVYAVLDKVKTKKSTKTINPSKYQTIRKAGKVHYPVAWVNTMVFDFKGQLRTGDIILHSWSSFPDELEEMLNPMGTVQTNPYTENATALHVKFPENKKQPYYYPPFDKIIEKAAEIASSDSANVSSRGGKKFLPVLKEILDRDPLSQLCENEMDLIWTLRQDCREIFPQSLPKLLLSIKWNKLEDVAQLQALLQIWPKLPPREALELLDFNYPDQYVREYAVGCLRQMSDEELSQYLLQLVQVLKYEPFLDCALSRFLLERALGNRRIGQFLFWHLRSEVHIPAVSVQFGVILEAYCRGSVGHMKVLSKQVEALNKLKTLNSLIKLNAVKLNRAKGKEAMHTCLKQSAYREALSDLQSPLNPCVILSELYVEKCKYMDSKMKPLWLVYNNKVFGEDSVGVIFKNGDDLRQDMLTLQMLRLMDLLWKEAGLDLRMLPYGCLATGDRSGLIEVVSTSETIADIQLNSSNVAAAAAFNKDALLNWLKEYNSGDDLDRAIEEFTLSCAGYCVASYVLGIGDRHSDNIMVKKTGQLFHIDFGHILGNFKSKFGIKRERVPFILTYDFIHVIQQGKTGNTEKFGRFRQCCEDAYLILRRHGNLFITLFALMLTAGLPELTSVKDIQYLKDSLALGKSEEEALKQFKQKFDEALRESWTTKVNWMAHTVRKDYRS
Chain of PI3Kβ (P27986 whole entry partner): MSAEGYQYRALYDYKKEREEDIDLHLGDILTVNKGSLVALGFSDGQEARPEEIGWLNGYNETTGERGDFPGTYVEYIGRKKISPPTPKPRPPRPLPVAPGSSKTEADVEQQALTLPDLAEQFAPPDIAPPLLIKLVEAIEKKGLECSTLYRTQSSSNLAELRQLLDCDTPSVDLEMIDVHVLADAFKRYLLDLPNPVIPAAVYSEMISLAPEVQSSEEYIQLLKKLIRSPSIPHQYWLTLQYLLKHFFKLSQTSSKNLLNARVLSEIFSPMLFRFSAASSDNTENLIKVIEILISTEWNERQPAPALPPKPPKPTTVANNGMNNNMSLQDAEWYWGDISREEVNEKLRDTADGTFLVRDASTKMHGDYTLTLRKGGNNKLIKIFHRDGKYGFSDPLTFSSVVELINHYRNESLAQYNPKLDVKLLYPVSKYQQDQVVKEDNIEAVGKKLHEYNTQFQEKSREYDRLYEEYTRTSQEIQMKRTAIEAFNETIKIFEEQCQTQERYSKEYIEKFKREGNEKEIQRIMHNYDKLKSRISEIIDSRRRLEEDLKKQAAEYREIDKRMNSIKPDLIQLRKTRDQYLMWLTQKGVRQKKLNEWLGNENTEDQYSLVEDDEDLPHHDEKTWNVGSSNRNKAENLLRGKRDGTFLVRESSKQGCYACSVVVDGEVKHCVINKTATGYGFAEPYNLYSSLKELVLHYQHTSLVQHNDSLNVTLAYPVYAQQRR

Structure (SMILES)	IC50 (PI3Kβ) [µM]	IC50 [1, 2] [µM]	IC50 [1, 3] [µM]
CCNc1nc2ccc(-c3ccc4c(c3)CN(c3ncnc(NCC)c3C)CCO4)cc2[nH]1 [Compound 699]	1.74	2.12	3.81
Cc1nc2ncc(-c3ccc4c(c3)CN(c3nc(CN(C)C)nc5c3CC(C)(C)CC5)CCO4)cc2[nH]1 [Compound 693]	> 3	–	–
Cc1nc2cc(-c3ccc4c(c3)CN(c3nc(CN(C)C)nc(C)c3C(C)C)CCO4)cnc2[nH]1 [Compound 694]	> 3	0.231	0.571

The next molecules have a lower IC50 (PI3Kβ) than those just listed; values first:

IC50 (PI3Kβ) [µM]	IC50 [1, 2] [µM]	IC50 [1, 3] [µM]	Structure (SMILES)
1.56	2.87	4.54	CCNc1nc2ccc(-c3ccc4c(c3)CN(c3ccnc5cc(F)ccc35)CCO4)cc2[nH]1 [Compound 698]
1.31	1.69	1.86	COc1ccc2c(N3CCOc4ccc(-c5cnc6nc(C)[nH]c6c5)cc4C3)nc(CN(C)C)nc2c1 [Compound 696]
